From article PMC9299836 (eLife, 2022)

Columns and labels:
mGluR2 [1] = biological target: T1, mGluR2 (Mus musculus, UniProt Q14BI2, A548F); test: Single-molecule FRET (SiMPull) of azi-CRD: population histograms and state occupancy; settings: azi-CRD, 10 μM modulator, fraction of total area;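 also: Cy3/Cy5-labelled receptor from HEK293T cell lysate captured on anti-FLAG surfaces, apparent FRET efficiency computed from donor and acceptor intensities with crosstalk correction, pooled into population histograms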
T1 sequence (Q14BI2 19-872 A548F): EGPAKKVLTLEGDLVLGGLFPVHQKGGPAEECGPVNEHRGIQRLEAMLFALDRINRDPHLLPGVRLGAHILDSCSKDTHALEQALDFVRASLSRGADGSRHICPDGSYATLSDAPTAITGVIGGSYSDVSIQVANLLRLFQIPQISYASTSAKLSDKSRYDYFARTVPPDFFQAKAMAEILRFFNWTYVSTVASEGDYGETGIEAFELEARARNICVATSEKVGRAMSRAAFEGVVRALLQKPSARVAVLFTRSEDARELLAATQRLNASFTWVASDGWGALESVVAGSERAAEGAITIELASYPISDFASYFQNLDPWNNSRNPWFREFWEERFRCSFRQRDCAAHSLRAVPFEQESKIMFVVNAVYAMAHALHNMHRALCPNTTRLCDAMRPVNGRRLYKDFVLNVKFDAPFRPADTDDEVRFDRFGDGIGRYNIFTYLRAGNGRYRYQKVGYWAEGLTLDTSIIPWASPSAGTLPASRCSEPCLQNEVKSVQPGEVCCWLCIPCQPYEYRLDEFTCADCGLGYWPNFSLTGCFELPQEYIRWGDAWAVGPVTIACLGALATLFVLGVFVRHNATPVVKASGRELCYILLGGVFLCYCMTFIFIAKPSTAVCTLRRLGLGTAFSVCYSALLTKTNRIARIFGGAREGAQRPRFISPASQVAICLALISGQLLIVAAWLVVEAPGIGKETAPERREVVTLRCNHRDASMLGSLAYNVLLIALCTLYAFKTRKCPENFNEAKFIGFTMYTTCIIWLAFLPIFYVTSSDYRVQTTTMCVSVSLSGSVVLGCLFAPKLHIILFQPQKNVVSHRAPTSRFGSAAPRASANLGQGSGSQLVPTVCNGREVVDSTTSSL

mGluR2 [2] = biological target: T1, mGluR2; test: smFRET of azi-CRD: cross-correlation of donor and acceptor intensities (CRD dynamics) and HMM transition density plots; settings: 0μM Glutamate + GPT/Pyruvate + 10μM BINA, N 3;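 also: single detergent-solubilized receptors captured on antibody-coated flow cells via C-terminal FLAG-tag, imaged by smFRET, donor and acceptor intensity traces from three independent biological replicates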

Cc1c(OCc2cccc(-c3ccc(C(=O)O)cc3)c2)cc2c(c1C)C(=O)C(C1CCCC1)C2 (stereo not drawn) [BINA]
Mean occupancy, state 1 (inactive, FRET 0.24) (mGluR2 [1]; 0 μM glutamate): 0.3053 | Mean occupancy, state 2 (intermediate 1, FRET 0.38) (mGluR2 [1]; 0 μM glutamate): 0.5199 | Mean occupancy, state 3 (intermediate 2, FRET 0.70) (mGluR2 [1]; 0 μM glutamate): 0.1483 | Mean occupancy, state 4 (active, FRET 0.87) (mGluR2 [1]; 0 μM glutamate): 0.02653 | Mean occupancy, state 1 (inactive, FRET 0.24) (mGluR2 [1]; 1000 μM glutamate): 0.00296 | Mean occupancy, state 2 (intermediate 1, FRET 0.38) (mGluR2 [1]; 1000 μM glutamate): 0.03751 | Mean occupancy, state 3 (intermediate 2, FRET 0.70) (mGluR2 [1]; 1000 μM glutamate): 0.2179 | Mean occupancy, state 4 (active, FRET 0.87) (mGluR2 [1]; 1000 μM glutamate): 0.7416 | Cross Correlation, Mean (mGluR2 [2]; Time 0 s): -0.309 | Cross Correlation, Mean (mGluR2 [2]; Time 0.05 s): -0.1732 | Cross Correlation, Mean (mGluR2 [2]; Time 0.1 s): -0.1405 | Cross Correlation, Mean (mGluR2 [2]; Time 0.15 s): -0.1268 | Cross Correlation, Mean (mGluR2 [2]; Time 0.2 s): -0.1138 | Cross Correlation, Mean (mGluR2 [2]; Time 0.25 s): -0.1079 | Cross Correlation, Mean (mGluR2 [2]; Time 0.3 s): -0.1007 | Cross Correlation, Mean (mGluR2 [2]; Time 0.35 s): -0.09667 | Cross Correlation, Mean (mGluR2 [2]; Time 0.4 s): -0.08889 | Cross Correlation, Mean (mGluR2 [2]; Time 0.45 s): -0.08933 | Cross Correlation, Mean (mGluR2 [2]; Time 0.5 s): -0.08286 | Cross Correlation, Mean (mGluR2 [2]; Time 0.55 s): -0.07956 | Cross Correlation, Mean (mGluR2 [2]; Time 0.6 s): -0.07731 | Cross Correlation, Mean (mGluR2 [2]; Time 0.65 s): -0.07407 | Cross Correlation, Mean (mGluR2 [2]; Time 0.7 s): -0.07365 | Cross Correlation, Mean (mGluR2 [2]; Time 0.75 s): -0.06697 | Cross Correlation, Mean (mGluR2 [2]; Time 0.8 s): -0.06199 | Cross Correlation, Mean (mGluR2 [2]; Time 0.85 s): -0.06042 | Cross Correlation, Mean (mGluR2 [2]; Time 0.9 s): -0.05216 | Cross Correlation, Mean (mGluR2 [2]; Time 0.95 s): -0.05689 | Cross Correlation, Mean (mGluR2 [2]; Time 1 s): -0.0539 | Cross Correlation, Mean (mGluR2 [2]; Time 1.05 s): -0.05356 | Cross Correlation, Mean (mGluR2 [2]; Time 1.1 s): -0.0518 | Cross Correlation, Mean (mGluR2 [2]; Time 1.15 s): -0.0477 | Cross Correlation, Mean (mGluR2 [2]; Time 1.2 s): -0.04715 | Cross Correlation, Mean (mGluR2 [2]; Time 1.25 s): -0.04267 | Cross Correlation, Mean (mGluR2 [2]; Time 1.3 s): -0.04926 | Cross Correlation, Mean (mGluR2 [2]; Time 1.35 s): -0.04133 | Cross Correlation, Mean (mGluR2 [2]; Time 1.4 s): -0.03906 | Cross Correlation, Mean (mGluR2 [2]; Time 1.45 s): -0.0385 | Cross Correlation, Mean (mGluR2 [2]; Time 1.5 s): -0.035 | Cross Correlation, Mean (mGluR2 [2]; Time 1.55 s): -0.03506 | Cross Correlation, Mean (mGluR2 [2]; Time 1.6 s): -0.03291 | Cross Correlation, Mean (mGluR2 [2]; Time 1.65 s): -0.03291 | Cross Correlation, Mean (mGluR2 [2]; Time 1.7 s): -0.03331 | Cross Correlation, Mean (mGluR2 [2]; Time 1.75 s): -0.03095 | Cross Correlation, Mean (mGluR2 [2]; Time 1.8 s): -0.02869 | Cross Correlation, Mean (mGluR2 [2]; Time 1.85 s): -0.03476 | Cross Correlation, Mean (mGluR2 [2]; Time 1.9 s): -0.02485 | Cross Correlation, Mean (mGluR2 [2]; Time 1.95 s): -0.02573 | Cross Correlation, Mean (mGluR2 [2]; Time 2 s): -0.0316 | Cross Correlation, Mean (mGluR2 [2]; Time 2.05 s): -0.03349 | Cross Correlation, Mean (mGluR2 [2]; Time 2.1 s): -0.02361 | Cross Correlation, Mean (mGluR2 [2]; Time 2.15 s): -0.02192 | Cross Correlation, Mean (mGluR2 [2]; Time 2.2 s): -0.02164 | Cross Correlation, Mean (mGluR2 [2]; Time 2.25 s): -0.01683
